Source: ChEMBL document CHEMBL5729067, “Phenylacetamides as inhibitors of rock” (2022)

Target: Rho-associated protein kinase 2 (Homo sapiens, UniProt O75116)
Assay: In Vitro Assay: The effectiveness of compounds of the present invention as ROCK inhibitors can be determined in a 30 μL assay containing 20 mM HEPES, pH 7.5, 20 mM MgCl2, 0.015% Brij-35, 4 mM DTT, 5 μM ATP and 1.5 μM peptide substrate (FITC-AHA-AKRRRLSSLRA-OH) (SEQ ID No. 1). Compounds were dissolved in DMSO so that the final concentration of DMSO was <2%, and the reaction was initiated with Rho kinase variants. After incubation, the reaction was terminated by the addition of EDTA and the phosphorylated and non-phosphorylated peptides separated using a LABCHIP® 3000 Reader (Caliper Life Sciences). […] Compounds were tested in dose-response format, and the inhibition of kinase activity was calculated at each concentration of compound. The inhibition data were fit using a curve-fitting program to determine the IC50; i.e., the concentration of compound required to inhibit 50% of kinase activity.

Chain of Rho-associated protein kinase 2 (O75116 whole entry, looked up, change not shown): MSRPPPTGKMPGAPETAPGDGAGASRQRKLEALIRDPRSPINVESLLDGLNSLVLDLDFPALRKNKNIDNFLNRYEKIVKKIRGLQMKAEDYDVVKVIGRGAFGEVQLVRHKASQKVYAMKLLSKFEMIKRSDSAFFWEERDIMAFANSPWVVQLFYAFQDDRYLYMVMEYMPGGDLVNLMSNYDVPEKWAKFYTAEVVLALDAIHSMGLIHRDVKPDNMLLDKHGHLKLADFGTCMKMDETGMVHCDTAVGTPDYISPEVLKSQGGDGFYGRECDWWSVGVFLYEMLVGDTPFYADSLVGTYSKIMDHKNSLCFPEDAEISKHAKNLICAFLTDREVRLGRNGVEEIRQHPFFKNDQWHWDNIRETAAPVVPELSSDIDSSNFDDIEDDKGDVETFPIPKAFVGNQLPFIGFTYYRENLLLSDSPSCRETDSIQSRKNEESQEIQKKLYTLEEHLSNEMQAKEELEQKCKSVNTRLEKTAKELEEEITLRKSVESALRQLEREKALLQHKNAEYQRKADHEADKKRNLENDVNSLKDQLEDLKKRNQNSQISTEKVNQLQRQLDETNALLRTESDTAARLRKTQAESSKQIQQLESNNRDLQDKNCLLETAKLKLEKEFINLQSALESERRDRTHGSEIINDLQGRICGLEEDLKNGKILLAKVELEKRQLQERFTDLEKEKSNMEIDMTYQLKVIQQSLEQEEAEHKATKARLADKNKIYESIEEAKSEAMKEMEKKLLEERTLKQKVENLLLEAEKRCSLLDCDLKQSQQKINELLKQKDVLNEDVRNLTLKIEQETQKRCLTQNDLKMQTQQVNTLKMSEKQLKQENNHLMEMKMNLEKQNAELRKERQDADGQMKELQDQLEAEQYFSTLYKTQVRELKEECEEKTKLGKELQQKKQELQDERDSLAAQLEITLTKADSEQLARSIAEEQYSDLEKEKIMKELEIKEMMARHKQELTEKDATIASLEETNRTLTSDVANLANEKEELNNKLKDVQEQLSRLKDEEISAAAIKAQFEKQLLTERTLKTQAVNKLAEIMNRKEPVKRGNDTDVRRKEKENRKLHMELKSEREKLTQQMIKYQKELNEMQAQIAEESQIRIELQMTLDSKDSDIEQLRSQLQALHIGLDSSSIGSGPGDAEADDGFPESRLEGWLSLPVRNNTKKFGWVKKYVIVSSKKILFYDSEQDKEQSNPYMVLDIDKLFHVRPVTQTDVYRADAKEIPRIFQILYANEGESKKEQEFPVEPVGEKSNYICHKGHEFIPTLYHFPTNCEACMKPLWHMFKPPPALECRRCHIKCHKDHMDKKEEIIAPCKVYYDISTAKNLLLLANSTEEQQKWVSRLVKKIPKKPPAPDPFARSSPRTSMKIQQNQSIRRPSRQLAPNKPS

SMILES: Cc1sc(C(=O)Cc2ccc(Oc3ncccc3C(N)=O)cc2)nc1-c1ccccc1
- IC50: 87 nM
